Reference: patent publication US10221138B2, “Biaryl derivatives as GPR120 agonists” (LG CHEM, LTD., priority 2013, dated 2019)
pEC50: −log10 of the molar value.

Target: T1, hGPR120 (Homo sapiens, UniProt Q5NUL3)
T1 construct: expressed in transfected cells; host or cells: CHO-K1
T1 sequence (Q5NUL3 1-361): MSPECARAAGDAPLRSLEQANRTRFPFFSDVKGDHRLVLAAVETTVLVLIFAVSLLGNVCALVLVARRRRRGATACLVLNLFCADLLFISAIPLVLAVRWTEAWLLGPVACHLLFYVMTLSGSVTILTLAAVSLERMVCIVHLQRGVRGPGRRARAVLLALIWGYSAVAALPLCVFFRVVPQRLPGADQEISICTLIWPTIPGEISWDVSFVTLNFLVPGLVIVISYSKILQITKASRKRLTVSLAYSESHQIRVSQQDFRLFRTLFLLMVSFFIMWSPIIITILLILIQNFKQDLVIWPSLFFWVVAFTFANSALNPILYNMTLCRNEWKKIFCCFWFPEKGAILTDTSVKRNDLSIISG
Experiment: Measurement of activity of GPR120 agonist (cell-based calcium fluorescence assay)
Details: CHO-K1 cells expressing Ga16 and hGPR120, Calcium 5 dye fluorescence; activity class; read-out: EC50
Summary of the method: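 CHO-K1 cells co-expressing Gα16 and hGPR120, plated 18 h, loaded with Calcium 5 dye for 1 h at 37 °C, then given serially diluted agonists (final 0.5% DMSO). Fluorescence increase expressed as relative % of the 1% DMSO-only signal.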

| Compound | pEC50 |
| --- | --- |
| O=C(O)CCCCCOc1c(F)cc(-c2cccnc2SC2CCC2)cc1F [Example 274, 6-[4-(2-cyclobutylsulfanyl-3-pyridyl)-2,6-difluoro-phenoxy]hexanoic acid] | > 6.70 |
| Cc1cnc(OC(C)C)c(-c2ccc(SCCCC(=O)O)c(F)c2)c1 [Example 187, 4-[2-fluoro-4-(2-isopropoxy-5-methyl-pyridin-3-yl)-phenylsulfanyl]-butyric acid] | > 6.70 |
| O=C(O)CCCOc1c(F)cc(-c2cccnc2SCC2CC2)cc1F [Example 47, 4-[4-(2-cyclopropylmethylsulfanyl-pyridin-3-yl)-2,6-difluoro-phenoxy]-butyric acid] | > 6.70 |
| CC(C)Sc1cccc(-c2ccc(OCCCC(=O)O)cc2)n1 [Example 210, 4-[4-(6-isopropylsulfanyl-2-pyridyl)phenoxy]butanoic acid] | > 6.70 |
| O=C(O)CCCSc1c(F)cc(-c2cccc(OC3CCC3)n2)cc1F [Example 154, 4-[4-(6-cyclobutoxy-pyridin-2-yl)-2,6-difluoro-phenylsulfanyl]-butyric acid] | > 6.70 |
| O=C(O)CCCOc1c(F)cc(-c2cccnc2OCC2CCOC2)cc1F (stereo not shown) [Example 222, 4-[2,6-difluoro-4-[2-(tetrahydrofuran-3-ylmethoxy)-3-pyridyl]phenoxy]butanoic acid] | 4.70 to 5.70 |
| CC(C)Oc1cccc(-c2ccc(SCCCC(=O)O)cc2)n1 [Example 130, 4-[4-(6-isopropoxy-pyridin-2-yl)-phenylsulfanyl]-butyric acid] | > 6.70 |
| O=C(O)CCCOc1c(F)cc(-c2cccc(C3CCCC3)c2)cc1F [Example 97, 4-[4-(3-cyclopentylphenyl)-2,6-difluoro-phenoxy]butanoic acid] | > 6.70 |
| Cc1cc(F)c(OC(C)C)c(-c2ccc(SCCCC(=O)O)c(F)c2)c1 [Example 190, 4-(3,3′-difluoro-2′-isopropoxy-5′-methyl-biphenyl-4-ylsulfanyl)-butyric acid] | > 6.70 |
| COc1ccc(-c2ccc(SCCCC(=O)O)c(F)c2)c(OC2CCCC2)c1 [Example 183, 4-(2′-cyclopentyloxy-3-fluoro-4′-methoxy-biphenyl-4-ylsulfanyl)-butyric acid] | 5.70 to 6.70 |
| O=C(O)CCCSc1ccc(-c2cccc(F)c2OC2CCCC2)cc1F [Example 194, 4-(2′-cyclopentyloxy-3,3′-difluoro-biphenyl-4-ylsulfanyl)-butyric acid] | < 4.70 |
| CC(C)Nc1cccc(-c2cc(F)c(OCCCC(=O)O)c(F)c2)c1 [Example 91, 4-[2,6-difluoro-4-[3-(isopropylamino)phenyl]phenoxy]butanoic acid] | > 6.70 |
| O=C(O)CCCSc1ccc(-c2cc(F)ccc2NC2CCCC2)cc1 [Example 176, 4-(2′-cyclopentylamino-5′-fluoro-biphenyl-4-ylsulfanyl)-butyric acid] | > 6.70 |
| O=C(O)CCCOc1c(F)cc(-c2cccnc2OC2CCC(O)C2)cc1F (stereo not shown) [Example 227, 4-{2,6-difluoro-4-[2-(3-hydroxy-cyclopentyloxy)-pyridin-3-yl]-phenoxy}-butyric acid] | 4.70 to 5.70 |
| CN(C)C1CCN(c2cccc(-c3cc(F)c(OCCCC(=O)O)c(F)c3)n2)C1 (stereo not shown) [Example 212, 4-[4-[6-[3-(dimethylamino)pyrrolidin-1-yl]-2-pyridyl]-2,6-difluoro-phenoxy]butanoic acid] | < 4.70 |
| O=C(O)CCCCSc1ccc(-c2cccnc2SC2CCC2)cc1 [Example 259, 5-[4-(2-cyclobutylsulfanyl-pyridin-3-yl)-phenylsulfanyl]-pentanoic acid] | > 6.70 |
| Cc1cc(Oc2ncccc2-c2cc(F)c(OCCCC(=O)O)c(F)c2)no1 [Example 217, 4-[2,6-difluoro-4-[2-(5-methylisoxazol-3-yl)oxy-3-pyridyl]phenoxy]butanoic acid] | 4.70 to 5.70 |
| CC(C)Oc1ncccc1-c1cc(F)c(SCCCC(=O)O)c(F)c1 [Example 138, 4-[2,6-difluoro-4-(2-isopropoxy-pyridin-3-yl)-phenylsulfanyl]-butyric acid] | > 6.70 |
| Cc1ccc(OC2CCCC2)c(-c2ccc(SCCCC(=O)O)c(F)c2)c1F [Example 193, 4-(6′-cyclopentyloxy-3,2′-difluoro-3′-methyl-biphenyl-4-ylsulfanyl)-butyric acid] | 5.70 to 6.70 |
| CC(CCC(=O)O)Sc1c(F)cc(-c2cccnc2OC2CCCC2)cc1F (stereo not shown) [Example 201, 4-[4-(2-cyclopentyloxy-pyridin-3-yl)-2,6-difluoro-phenylsulfanyl]-pentanoic acid] | > 6.70 |
| O=C(O)CCCSc1ccc(-c2cccc(OC3CCC3)n2)cc1 [Example 128, 4-[4-(6-cyclobutoxy-pyridin-2-yl)-phenylsulfanyl]-butyric acid] | > 6.70 |
| O=C(O)CCCSc1ccc(-c2cccnc2SC2CCCC2)cc1 [Example 149, 4-[4-(2-cyclopentylsulfanyl-pyridin-3-yl)-phenylsulfanyl]-butyric acid] | > 6.70 |

| Compound | pEC50 |
| --- | --- |
| O=C(O)CCCOc1ccc(-c2ccccc2NC2CCC2)cc1 [Example 88, 4-[4-[2-(cyclobutylamino)phenyl]phenoxy]butanoic acid] | 5.70 to 6.70 |
| Cc1cc(-c2cccnc2SC2CCC2)cc(C)c1OCCCC(=O)O [Example 10, 4-[4-(2-cyclobutylsulfanyl-pyridin-3-yl)-2,6-dimethyl-phenoxy]-butyric acid] | > 6.70 |
| CCCOc1cccc(-c2cc(F)c(SCCCC(=O)O)c(F)c2)n1 [Example 136, 4-[2,6-difluoro-4-(6-propoxy-pyridin-2-yl)-phenylsulfanyl]-butyric acid] | > 6.70 |
| CC(C)COc1ncccc1-c1cc(F)c(OCCCC(=O)O)c(F)c1 [Example 230, 4-[2,6-difluoro-4-(2-isobutoxy-pyridin-3-yl)-phenoxy]-butyric acid] | > 6.70 |
| O=C(O)CCCOc1c(F)cc(-c2cccc(CC3CCC3)n2)cc1F [Example 103, 4-[4-[6-(cyclobutylmethyl)-2-pyridyl]-2,6-difluoro-phenoxy]butanoic acid] | > 6.70 |
| O=C(O)CCCSc1ccc(-c2cccnc2OC2CCOC2)cc1F (stereo not shown) [Example 245, 4-{2-fluoro-4-[2-(tetrahydrofuran-3-yloxy)-pyridin-3-yl]-phenylsulfanyl}-butyric acid] | 5.70 to 6.70 |
| O=C(O)CCCOc1c(F)cc(-c2cccc(SC3CCC3)n2)cc1F [Example 20, 4-[4-(6-cyclobutylsulfanyl-2-pyridyl)-2,6-difluoro-phenoxy]butyric acid] | > 6.70 |
| O=C(O)CCCSc1c(F)cc(-c2cccnc2NC2CCCC2)cc1F [Example 249, 4-[4-(2-cyclopentylamino-pyridin-3-yl)-2,6-difluoro-phenylsulfanyl]-butyric acid] | > 6.70 |
| CC(C)Nc1ncccc1-c1cc(F)c(OCCCC(=O)O)c(F)c1 [Example 76, 4-[2,6-difluoro-4-[2-(isopropylamino)-3-pyridyl]phenoxy]butanoic acid] | 5.70 to 6.70 |
| CCCCSc1ncccc1-c1cc(F)c(OCCCC(=O)O)c(F)c1 [Example 207, 4-[4-(2-butylsulfanyl-pyridin-3-yl)-2,6-difluoro-phenoxy]-butanoic acid] | > 6.70 |
| O=C(O)CCCOc1c(F)cc(-c2cc(F)ccc2NC2CCCC2)cc1F [Example 96, 4-[4-[2-(cyclopentylamino)-5-fluoro-phenyl]-2,6-difluoro-phenoxy]butanoic acid] | > 6.70 |
| CC(C)Nc1ccccc1-c1ccc(OCCCC(=O)O)cc1 [Example 87, 4-[4-[2-(isopropylamino)phenyl]phenoxy]butanoic acid] | 5.70 to 6.70 |
| O=C(O)CCCCOc1c(F)cc(-c2cccnc2SC2CCCC2)cc1F [Example 234, 5-[4-(2-cyclopentylsulfanyl-3-pyridyl)-2,6-difluoro-phenoxy]pentanoic acid] | > 6.70 |
| O=C(O)CCCOc1ccc(-c2ccccc2NCC2CC2)cc1 [Example 85, 4-[4-[2-(cyclopropylmethylamino)phenyl]phenoxy]butanoic acid] | 5.70 to 6.70 |
| CC1(COc2ncccc2-c2cc(F)c(OCCCC(=O)O)c(F)c2)COC1 [Example 221, 4-[2,6-difluoro-4-[2-[(3-methyloxetan-3-yl)methoxy]-3-pyridyl]phenoxy]butanoic acid] | < 4.70 |
| O=C(O)CCCOc1c(F)cc(-c2cccc(N3CCCC3)n2)cc1F [Example 12, 4-[2,6-difluoro-4-(6-pyrrolidin-1-yl-2-pyridyl)phenoxy]butyric acid] | > 6.70 |
| O=C(O)CCCOc1c(F)cc(-c2ccccc2NC2CCC2)cc1F [Example 89, 4-[4-[2-(cyclobutylamino)phenyl]-2,6-difluoro-phenoxy]butanoic acid] | > 6.70 |
| O=C(O)CCCOc1c(F)cc(-c2cccnc2OCCF)cc1F [Example 32, 4-{2,6-difluoro-4-[2-(2-fluoro-ethoxy)-pyridin-3-yl]-phenoxy}-butyric acid] | < 4.70 |
| CC(C)Sc1cccc(-c2cc(F)c(SCCCC(=O)O)c(F)c2)n1 [Example 140, 4-[2,6-difluoro-4-(6-isopropylsulfanyl-pyridin-2-yl)-phenylsulfanyl]-butyric acid] | > 6.70 |
| CC(C)Oc1ncccc1-c1ccc(SCCCC(=O)O)cc1 [Example 131, 4-[4-(2-isopropoxy-pyridin-3-yl)-phenylsulfanyl]-butyric acid] | 5.70 to 6.70 |
| O=C(O)CCCCCOc1c(F)cc(-c2cccnc2OCC2CCC2)cc1F [Example 272, 6-[4-[2-(cyclobutylmethoxy)-3-pyridyl]-2,6-difluoro-phenoxy]hexanoic acid] | > 6.70 |
